Measurements from patent publication US20230210819A1, “USE OF BENZISOSELAZOLE DERIVATIVE FOR ANTI-CORONAVIRUS AND CONTROL OF INTERSTITIAL LUNG DISEASE (ILD) RELATED TO CORONAVIRUS” (SHANGHAI YUANXI MEDICINE CORP., priority 2020, published 2023).
Entries after “also recorded” stand apart in the source; their conditions may differ.

Assays:
[1] = Toxic or side effects on mice on gavage administration; assay type: in vivo; details: BS 36, 90 and 180 mg/kg
Description: Accordingly, the above dosages were selected as the dosages for administration in this experiment,
(§1) All the animals were observed once daily during the experiment for death or dying, feces, ingestion, mental state and behavior and activity. Abnormalities were recorded in time. All the animals were weighed once before grouping and once before each dose.

[2] = tested on: bleomycin-induced mouse lung disease model; assay: Blood gas analysis, 24-h modeling; assay type: in vivo, C57 mice; details: for BEect / HCO3^- / PCO2: arterial blood after administration ended
Description: (§2) Animals of 24-h modeling were randomly divided into 5 groups according to the table below, 3 animals per control group and 5 animals per test group.
(§3) Drug administration began 24 h or 7 d after modeling. […] The day of the first administration was counted as D1, the next day as D2, and so forth. The normal groups and Model groups were given 200 µL of normal saline daily by gavage administration.
1. After being anaesthetized, a mouse was fixed to a board in a supine position.
2. After the skin was disinfected with alcohol, a midline cut of about 1.5 cm was made downward in the skin of the neck. The connective tissue between the sternohyoid muscle and the stemothyroid muscle was separated along the anterior border of the sternomastoid muscle with a tissue forceps. The pulsating common carotid artery could be seen on the deep right side of the trachea. A common carotid artery of about 1.5 cm in length was separated. The distal end was ligated with silk thread, and the proximal end was clipped with an artery clip and threaded with a silk thread for later use. The mouse board was placed under a dissecting microscope, and a V-shaped centripetal incision was gently made in a site near the distal end of the artery with a microscopy scissor. A PE microcatheter was inserted into the artery and fixed by making a knot with silk thread. The artery clip was removed, and 0.1-0.2 mL of blood was collected with a 1 mL syringe. The proximal end was clipped with an artery clip, and the syringe was removed. The blood was immediately analyzed on an AbboTTi-STAT blood gas microanalyzer.
In a blood gas analysis, the H^+ concentration in the blood and gases (mainly CO2 and O2) dissolved in the blood can be determined to directly reflect the function of pulmonary ventilation and the acid-base balance state. They are used to determine in the organism whether the acid-base balance is upset, whether anoxia occurred, the level of anoxia, and so forth.

[3] = Body weight, bleomycin-induced mice, 24-h modeling; assay type: in vivo, C57 mice; details: for Body weight decreased by: day 1 to day 35
Description: as §2, §3, §1
(§4) In this experiment, 105 C57 mice were randomly selected and subjected to organ drip administration of a single dose of bleomycin at 2.5 mg/kg for 24 h or 7 d for induction. After 7 days of induction, 3 model mice were randomly selected and dissected to determine whether the modeling was successful. After modeling, the survival of the mice was recorded. The living states of the mice were observed and their body weight was measured at a fixed time.
A normal control group comprised 3 mice.

[4] = tested on: bleomycin-induced mouse lung disease model; assay: Lung and spleen coefficients, 7-d modeling; assay type: in vivo, C57 mice
Description: Animals of 7-d modeling were randomly divided into 7 groups according to the table below, 6 animals per control group and 12 animals per test group.
as §3
Method: after being euthanized, the animals were dissected, and the heart, liver, spleen, lung and kidney were weighed.
as §4
A normal control group comprised 6 mice.

[5] = Dex 1-1.5 mg/kg i.p. every two days

With `O=c1c2ccccc2[se]n1CCCCn1[se]c2ccccc2c1=O` [BS, 1,4-[bis(1,2-benzisoselenazol-3(2H)-one)]butane] the “Toxic or side effects (in words)” value [1] was “no toxic and side effects; also recorded: no significant toxic or side effects”, the BEect ([2]; BS 90 mg/kg gavage daily) was -9.40 ± 1.14 mmol/L and the “HCO3^-” value ([2]; BS 90 mg/kg gavage daily) was 30.00 ± 1.20 mmol/L. For the same molecule, the PCO2 ([2]; BS 90 mg/kg gavage daily) was 30.84±1.21 mmHg, the “Effect on blood gas analysis (in words)” value ([2]; BS 90 mg/kg, better than Dex (1-1.5 mg/kg) in general) was “significant improvements to the function of pulmonary ventilation and the acid-base balance states” and the Body weight ([3]; BS 90 mg/kg gavage daily, D1) was 20.34 ± 1.01 g. It also gave a Body weight ([3]; BS 90 mg/kg gavage daily, D7) of 19.50 ± 1.35 g, a Body weight ([3]; BS 90 mg/kg gavage daily, D14) of 18.84 ± 1.70 g and a Body weight ([3]; BS 90 mg/kg gavage daily, D21) of 18.52 ± 1.75 g. The Body weight ([3]; BS 90 mg/kg gavage daily, D28) was 18.30 ± 1.60 g, the Body weight ([3]; BS 90 mg/kg gavage daily, D35) was 18.02 ± 1.75 g and the “Body weight decreased by” value ([3]; BS 90 mg/kg gavage daily) was 13.58%. The “Effect on lung coefficient (in words)” value ([4]; BS 90 mg/kg or 180 mg/kg, effect better than that of Dex) was “significantly reduce increases in the lung coefficient”, the “Effect on spleen coefficient (in words)” value ([4]; BS 180 mg/kg, effect better than that of Dex) was “significantly decrease the spleen coefficient” and the Lung coefficient ([4]; BSH: BS 180 mg/kg gavage daily) was 0.88±0.05%. It also gave a Spleen coefficient ([4]; BSH: BS 180 mg/kg gavage daily) of 0.39±0.02%, a Lung coefficient ([4]; BSL: BS 36 mg/kg gavage daily) of 0.97±0.07% and a Spleen coefficient ([4]; BSL: BS 36 mg/kg gavage daily) of 0.40±0.07%. It also gave a Lung coefficient ([4]; BSM: BS 90 mg/kg gavage daily) of 0.90±0.09% and a Spleen coefficient ([4]; BSM: BS 90 mg/kg gavage daily) of 0.40±0.05%.

With `C[C@@H]1C[C@H]2[C@@H]3CCC4=CC(=O)C=C[C@]4(C)[C@@]3(F)[C@@H](O)C[C@]2(C)[C@@]1(O)C(=O)CO` [Dex, dexamethasone, reference compound] the BEect [2, 5] was -9.20 ± 1.30 mmol/L, the “HCO3^-” value [2, 5] was 28.28 ± 1.56 mmol/L and the PCO2 [2, 5] was 32.52±2.73 mmHg. It also gave a Body weight ([3]; Dex 1-1.5 mg/kg i.p. every two days, D1) of 19.92 ± 1.38 g, a Body weight ([3]; Dex 1-1.5 mg/kg i.p. every two days, D7) of 20.02 ± 0.96 g and a Body weight ([3]; Dex 1-1.5 mg/kg i.p. every two days, D14) of 19.24 ± 0.95 g. For the same molecule, the Body weight ([3]; Dex 1-1.5 mg/kg i.p. every two days, D21) was 18.90 ± 0.78 g, the Body weight ([3]; Dex 1-1.5 mg/kg i.p. every two days, D28) was 18.56 ± 0.71 g and the Body weight ([3]; Dex 1-1.5 mg/kg i.p. every two days, D35) was 18.36 ± 0.66 g. For the same molecule, the “Body weight decreased by” value [3, 5] was 8.48%, the Lung coefficient [4, 5] was 0.96±0.08% and the Spleen coefficient [4, 5] was 0.43±0.04%.
